According to ChEMBL document CHEMBL1126628, “Design, synthesis, and neurochemical evaluation of 5-(3-alkyl-1,2,4- oxadiazol-5-yl)-1,4,5,6-tetrahydropyrimidines as M1 muscarinic receptor agonists” (J Med Chem, 1993):
pEC50, pIC50: −log10 of the molar value.

What was measured:
[1] = target: Muscarinic acetylcholine receptor
Description: Inhibition of [3H]-(R)-QNB binding to muscarinic receptors of rat brain membranes.

Rattus norvegicus [2] = species: Rattus norvegicus
Description: Ability to stimulate phosphoinositol metabolism was examined in the rat cerebral cortex at 100 uM

Rattus norvegicus [3] = species: Rattus norvegicus; experiment: cells; settings: Hippocampus
Description: Effective concentration of compound that can stimulate phosphoinositol metabolism in rat hippocampus

Rattus norvegicus [4] = species: Rattus norvegicus; experiment: Ability to stimulate phosphoinisitol metabolism was examined in the rat hippocampus represented as % maximal stimulation; format: functional
Rattus norvegicus [5] = species: Rattus norvegicus; experiment: cells; settings: Hippocampus; remark: listed apart in the source
Description: Inhibition of the response (stimulation of phosphoinositol metabolism in rat hippocampus) to 10 uM of compound by AF-DX 116

Rattus norvegicus [6] = species: Rattus norvegicus; experiment: cells; settings: Hippocampus; remark: listed apart in the source
Description: Inhibition of the response (stimulation of phosphoinositol metabolism in rat hippocampus) to 10 uM of compound by pirenzepine

Rattus norvegicus [7] = species: Rattus norvegicus; experiment: cells; settings: Hippocampus; remark: listed apart in the source
Description: Inhibition of the response (stimulation of phosphoinositol metabolism in rat hippocampus) to 10 uM of compound by p-F-hexahydrosiladifenidol

Rattus norvegicus [8] = species: Rattus norvegicus; experiment: Ability to stimulate phosphoinisitol metabolism was examined in the rat hippocampus; format: functional

| Structure (SMILES) | IC50 [1] | PI (Rattus norvegicus [2]) | also measured |
| --- | --- | --- | --- |
| Cc1noc(C2=CCCN(C)C2)n1 | 690 nM | 50% |  |
| Cc1noc(C2CN=CNC2)n1.O=C(O)C(F)(F)F (configuration not stated) |  | 700% | pEC50 (Rattus norvegicus [3]): 5.28; Max stimulation (Rattus norvegicus [4]): 510%; pIC50 (Rattus norvegicus [5]): 5.77; pIC50 (Rattus norvegicus [6]): 7.42; pIC50 (Rattus norvegicus [7]): 5.92 |
| CC(=O)OC1CN2CCC1CC2 (configuration not stated) [ACECLIDINE] |  | 80% | Max stimulation (Rattus norvegicus [8]): 390%; pIC50 (Rattus norvegicus [7]): 7.64 |
| CCCCCCCCc1noc(C2CN=CNC2)n1.O=C(O)C(F)(F)F (configuration not stated) | 530 nM | 28% |  |
| CCCCCCCc1noc(C2CN=CNC2)n1.O=C(O)C(F)(F)F (configuration not stated) | 2300 nM | 34% |  |
| CCCc1noc(C2CN=CNC2)n1.O=C(O)C(F)(F)F (configuration not stated) | 550 nM | 79% |  |
| CCCCCc1noc(C2CN=CNC2)n1.O=C(O)C(F)(F)F (configuration not stated) | 560 nM | 29% |  |
| Cc1noc(C2CN3CCC2CC3)n1 (configuration not stated) | 350 nM | 100% |  |
| CCc1noc(C2CN=CNC2)n1.O=C(O)C(F)(F)F (configuration not stated) |  | 130% |  |
| C[N+](C)(C)CCOC(N)=O.[Cl-] [CARBACHOL] |  | 470% |  |
| CCCCc1noc(C2CN=CNC2)n1.O=C(O)C(F)(F)F (configuration not stated) | 490 nM | 61% |  |
| CCCCCCc1noc(C2CN=CNC2)n1.O=C(O)C(F)(F)F (configuration not stated) | 2300 nM | 4.3% |  |
